This series in a line: solvent given as SMILES.

For `Cc1c(C)c(B(c2c(C)c(C)c(N3c4ccccc4Oc4ccccc43)c(C)c2C)c2c(C)c(C)c(N3c4ccccc4Oc4ccccc43)c(C)c2C)c(C)c(C)c1C#N`, the absorption maximum (in c1ccc([Si](c2ccccc2)(c2ccc(-n3c4ccccc4c4ccccc43)cc2)c2ccc(-n3c4ccccc4c4ccccc43)cc2)cc1) came out at 408 nm.
`C1=C(c2ccccc2)C=C(c2ccccc2)/C1=C/c1ccccc1` had an absorption maximum (in C1CCOC1) of 438 nm.
In the case of `CC[N+]1(CC)CN2C(=N1)C(C(=O)O)=Cc1ccccc12`, the absorption maximum is reported as 361 nm (in CN(C)C=O) and 373 nm (in O).
Under “in CO”, `CC1(C)C(/C=C/C2=C(Cl)C(=C/C=C3/N(CCCCS(=O)(=O)[O-])c4ccc5ccccc5c4C3(C)C)/CCC2)=[N+](CCCCS(=O)(=O)[O-])c2ccc3ccccc3c21` had an absorption maximum of 820 nm.
On to `CCCCCCCCCCCCn1nnc(-c2ccc(C#Cc3ccc(C#Cc4ccc(-c5nnn(CCCCCCCCCCCC)n5)cc4)c4nc5c6ccccc6c6ccccc6c5nc34)cc2)n1`, for which the absorption maximum (in C1CCOC1) is recorded as 428 nm, the absorption maximum (in Cc1ccccc1) is 428 nm and the absorption maximum (in ClCCl) was found to be 428 nm.
In turn, `Cn1c(=O)c(-c2ccccc2)nc2ccccc21` had an absorption maximum (in c1ccccc1) of 369 nm.
Take `CCOc1cc2c(cc1/C=C/C1=CC(=C(C#N)C#N)CC(C)(C)C1)c1ccccc1n2CC`: the absorption maximum reads like this: (in C1CCOC1) 476 nm; (in CC#N) 474 nm; (in CCO) 480 nm; (in CCOC(C)=O) 469 nm; (in CN(C)C=O) 487 nm; (in CS(C)=O) 491 nm. Besides, the absorption maximum by setting is: (in Cc1ccccc1) 474 nm; (in ClC(Cl)Cl) 480 nm; (in ClCCl) 479 nm.
For the compound `CCN1c2ccc(-c3cc(-c4ccccc4)[nH]n3)cc2Sc2cc(-c3cc(-c4ccccc4)[nH]n3)ccc21`, the absorption maximum runs as follows: (in C1CCOC1) 338 nm; (in CC#N) 338 nm; (in CN(C)C=O) 336 nm; (in ClCCl) 336 nm; (in c1ccccc1) 338 nm.
Where the note is “in CO”, `COc1ccc(-c2cc(B(c3c(C)cc(C)cc3C)c3c(C)cc(C)cc3C)c(-c3sc(-c4ccc(OC)cc4)cc3P(=O)(c3ccccc3)c3ccccc3)s2)cc1` came in with an absorption maximum of 402 nm.
For `CCC1=C(C)c2cc3ccccc3c(=O)n2C1=O`, the absorption maximum reads like this: (in CC#N) 369 nm; (in CCCCCC) 366 nm; (in CO) 370 nm; (in CS(C)=O) 373 nm; (in ClC(Cl)Cl) 371 nm.
Under “in ClC(Cl)Cl”, `N#Cc1ccc(Oc2ccc3c4c(cccc24)C(=O)N(CCO)C3=O)cc1` returned an absorption maximum of 352 nm.
As to `CCCCCCc1cc2c(s1)-c1cc3c(cc1NB2c1ccccc1)-c1sc(CCCCCC)cc1B(c1ccccc1)N3`, the absorption maximum (in ClCCl) was found to be 412 nm.
In the case of `C[C@@]12SC(Cl)=CC1=c1nc(-c3ccc(Cl)cc3)[nH]c1=C1C=C(Cl)S[C@]12C`, under “in CC#N”, the absorption maximum is given as 327 nm.
With `O=c1oc2ccccc2c2c1c(=O)oc1cc(O)cc(O)c12`, the absorption maximum reads like this: (in CS(C)=O) 388 nm; (in ClCCl) 385 nm.
As to `O=C(c1ccc(N(c2ccccc2)c2ccccc2)cc1)[C@H]1[C@H](c2cccs2)C[C@](O)(c2ccccn2)C[C@]1(O)c1ccccn1`, the absorption maximum runs as follows: (in C1CCOC1) 370 nm; (in CC#N) 364 nm; (in CCO) 368 nm; (in CCOC(C)=O) 366 nm; (in CN(C)C=O) 358 nm; (in ClCCl) 374 nm. The same compound gave an absorption maximum (in c1ccccc1) of 372 nm.
With `C(=C\c1ccnc2ccccc12)/c1ccc(/C=C/c2ccnc3ccccc23)cc1`, the absorption maximum was determined as 364 nm (in C1CCCCC1); 370 nm (in C1COCCO1); 370 nm (in CC#N); 371 nm (in CC(C)=O); 374 nm (in CC(C)O); 374 nm (in CCCO). The absorption maximum is 374 nm (in CCO); 378 nm (in CN(C)C=O); 374 nm (in CO); 382 nm (in CS(C)=O); 370 nm (in ClC(Cl)Cl); 370 nm (in ClCCl). The compound further had an absorption maximum (in OCCO) of 382 nm.
In turn, `CC(C)(C)c1ccc(N(c2ccccc2)c2ccc3ccc4c(N(c5ccccc5)c5ccc(C(C)(C)C)cc5)ccc5ccc2c3c54)cc1` registered an absorption maximum (in ClCCl) of 428 nm.
`COc1ccc(-c2oc3cccc4c5c(-c6ccc(OC)c(OC)c6)c(=N)oc6cccc(c2c34)c65)cc1OC`: under “in ClC(Cl)Cl”, the absorption maximum was found to be 410 nm.
With `COc1ccc2cc(-c3ccc(C(F)(F)F)cc3)oc(=O)c2c1`, the absorption maximum is, setting by setting: (in CCCCCC) 326 nm; (in CCCCCCCCO) 327 nm; (in CCCCO) 326 nm; (in CCCO) 325 nm; (in CCO) 324 nm; (in CCOC(C)=O) 326 nm. Moreover, the absorption maximum (in CN(C)C=O) is 328 nm, the absorption maximum (in CO) is reported as 324 nm and the absorption maximum (in ClC(Cl)Cl) is on record as 327 nm.
In turn, `CC1(C)C(/C=C/C2=C(c3ccc(C(=O)O)cc3)C(=C/C=C3/N(CCCCS(=O)(=O)[O-])c4ccc(S(=O)(=O)[O-])cc4C3(C)C)/CCC2)=[N+](CCCCS(=O)(=O)[O-])c2ccc(S(=O)(=O)[O-])cc21` showed an absorption maximum (in CO) of 770 nm.
Where the note is “in CCCCCC”, `CC(C)[Si](C#Cc1c2nsnc2c(C#C[Si](C(C)C)(C(C)C)C(C)C)c2nc3c(ccc4ccccc43)nc12)(C(C)C)C(C)C` showed an absorption maximum of 607 nm.
As for `N#Cc1c(-n2c3ccccc3c3ccccc32)c(-n2c3ccccc3c3ccccc32)c(-n2c3ccccc3c3ccccc32)c(-n2c3ccccc3c3ccccc32)c1-n1c2ccccc2c2ccccc21`, the absorption maximum (in Cc1ccccc1) came to 402.99 nm.
On to `CN(C)c1ccc2nc(-c3ccccc3)sc2c1`, for which the absorption maximum was 357 nm (in C1CCCCC1); 362 nm (in CC#N); 361 nm (in CC(C)O); 363 nm (in CO); 369 nm (in CS(C)=O); 362 nm (in ClC(Cl)Cl). The compound also returned an absorption maximum (in c1ccccc1) of 364 nm.
On to `F[B-]1(F)OC(c2cccc(Br)c2)=Cc2ccc3ccccc3[n+]21`, for which the absorption maximum (in ClC(Cl)Cl) worked out at 426 nm.
In turn, `C[Si]1(C)C2=CC(=[N+]3CCC3)C=C(F)C2=Nc2c(F)cc(N3CCC3)cc21` showed an absorption maximum (in CCO) of 709 nm.
Under “in ClCCl”, `CCCCN1C(=O)c2cccc3cc(C#CC#Cc4cc5c6c(cccc6c4)C(=O)N(CCCC)C5=O)cc(c23)C1=O` displayed an absorption maximum of 314 nm.
Compound `Cc1c[nH]c(=O)[nH]c1=O` gave an absorption maximum (in CC#N) of 261 nm.
Turning to `COc1ccc(C#Cc2c3ccccc3c(C#Cc3ccc(OC)cc3)c3cc4ccccc4cc23)cc1`, the absorption maximum (in ClCCl) was determined as 559 nm.
As for `CCCCCOc1cc2oc(=O)c3c4ccc(N(c5ccc(C)cc5)c5ccc(C)cc5)cc4c4ccc5cccc6c(c1)c2c3c4c56`, the absorption maximum (in C1CCOC1) is reported as 487 nm.
In turn, `CC1(C)Nc2cc3nc4cc(Cl)c(Cl)cc4nc3cc2N1` displayed an absorption maximum (in CCO) of 471 nm.
As to `Cc1ccc(C2=C3C=CC(C#Cc4ccccc4)=[N+]3[B-](F)(F)n3c(Cl)ccc32)cc1`, the absorption maximum reads like this: (in C1CCCCC1) 564 nm; (in C1CCOC1) 560 nm; (in C1COCCO1) 562 nm; (in CCOC(C)=O) 558 nm; (in CO) 556 nm; (in Cc1ccccc1) 566 nm. In addition, the absorption maximum (in ClC(Cl)Cl) is given as 564 nm.
Turning to `CC(C)[Si](C#Cc1ccc(C#Cc2c3cc4ccccc4cc3c(C#C[Si](C(C)C)(C(C)C)C(C)C)c3cc4ccccc4cc23)cc1)(C(C)C)C(C)C`, the absorption maximum (in ClCCl) came to 659 nm.
On to `O=C1O[B-]2(OC1=O)OC(c1ccccc1)=CC(c1ccc3ccccc3c1)=[O+]2`, for which the absorption maximum is on record as 435 nm (in CC#N) and 435 nm (in ClC(Cl)(Cl)Cl).
For `COc1ccc(C2=[N+]3C(=Nc4c5c6ccccc6c6ccc(C(C)(C)C)cc6c5c(-c5ccc(OC)cc5)n4[B-]3(F)F)c3c2c2cc(C(C)(C)C)ccc2c2ccccc32)cc1`, the absorption maximum (in Cc1ccccc1) is 716 nm.
The compound `COc1ccc2c3c(c4ccc(OC)cc4c2c1)C(C)(C)c1sccc1-3` registered an absorption maximum (in C1CCCCC1) of 391 nm.
Regarding `CC(C)c1cccc(C(C)C)c1N1C(=O)c2ccc3c4c(-c5ccc(C(=O)O)cc5)c5ccc6c7c(cc8c9cc(C(=O)O)ccc9c(c9ccc(c2c39)C1=O)c4c8c57)C(=O)N(c1c(C(C)C)cccc1C(C)C)C6=O`, for the setting “in ClCCl”, the absorption maximum was 607 nm.
Regarding `N#Cc1ccc(N(c2ccc(C#N)cc2)c2ccc3c4cccc5c(N(c6ccc(C#N)cc6)c6ccc(C#N)cc6)ccc(c6cccc2c63)c54)cc1`, the absorption maximum runs as follows: (in C1CCCCC1) 446 nm; (in C1CCOC1) 452 nm; (in CC#N) 446 nm; (in Cc1ccccc1) 451 nm; (in ClCCl) 450 nm.
Where the note is “in ClCCl”, `CCCCCCN1C(=O)c2cccc3c(-c4ccc(-c5cc(-c6ccc(OC)cc6)n(-c6ccccc6)n5)s4)ccc(c23)C1=O` had an absorption maximum of 403 nm.
With `Cc1cc2nc3c(=O)[nH]c(=O)n(C)c3nc2cc1C`, where the note is “in CC#N”, the absorption maximum stood at 379 nm.
Under “in CC#N”, `COc1ccc2cc(/C=C/c3ccccc3)c(=O)oc2c1` had an absorption maximum of 366 nm.
Consider `CC(=O)OC[C@@H]1O[C@H](N2C=CC3=Nc4nc(C)[n+](C)cc4CN3C2=O)[C@@H](O)[C@H]1O`, for which the absorption maximum came to 386 nm (in CC#N), 388 nm (in CCO) and 382 nm (in O).

Source of the values: the Deep4Chem optical property database.
